This passage reports pKa results from the pKa sets of Baltruschat and Czodrowski (2020).

For orientation: pKa means the negative logarithm of the acid dissociation constant. Read a low pKa as a stronger acid or weaker base.

With `CCN(CC)Cc1ccccc1OC`, the pKa (basic group) worked out at 10.2. In turn, `C[C@H]1CCCC[C@@H]1C(=O)O` had a pKa (acidic group) of 4.74. As for `CC(C)N/C=N/c1ccc(-c2cn(C)cn2)cc1`, the pKa (basic group) is 8.99. Molecule `O=C(O)c1ccccc1I` returned a pKa (acidic group) of 2.93. In turn, `C=Cc1c(C)c2cc3[nH+]c(c(CC(=O)OC)c4[nH]c(cc5nc(cc1[nH]2)C(C)=C5CC)c(C)c4C(=O)NCC)[C@@H](CCC(=O)OC)[C@@H]3C` displayed a pKa (basic group) of 0.

In the case of `O=C(O)c1ccc[nH+]c1`, the pKa by setting is: (acidic group) 2.03; (basic group) -2.4. Regarding `CC(N)=S`, the pKa (basic group) was -2.51.

`CC(C)(N)CO` returned a pKa (basic group) of 9.74. Consider `CC(CC(=O)O)C(N)=O` (configuration not stated), for which the pKa (acidic group) was determined as 4.59. Where the note is “basic group”, `Clc1cc(-c2ccccc2)nnc1NCC[NH+]1CCOCC1` registered a pKa of 2.54. On the same count and under the same terms, next, `CCOc1ccc2nccc([C@@H](O)[C@@H]3C[C@H]4CC[NH+]3C[C@@H]4CC)c2c1`: 4.05; `CCN(CC)CCNc1nc(N)nc(C)c1C`: 9.7. Turning to `Cc1cc(/N=N/c2nc3ccccc3s2)c2cccnc2c1O`, the pKa (acidic group) amounted to 7.5. Take `Nc1cccnc1N`: the pKa (basic group) was determined as 6.84. As to `[NH3+]Cc1nnn[nH]1`, the pKa (acidic group) was 2.62. Still for that read-out and setting: next, `C[n+]1nc(O)ccc1[O-]`: 5.65. Turning to `CC(=O)OCCN(C)C`, the pKa (basic group) is 8.3. The same measure, in the same setting: next, `CSCCN`: 9.41.

Under “acidic group”, `Nc1ccc(S(=O)(=O)Nc2nccs2)cc1/N=N/c1ccccc1` returned a pKa of 5.85.

As for `O=C(O)c1cccc([N+](=O)[O-])c1O`, the pKa (acidic group) was determined as 2.16. The molecule `Cn1nccc1N` came in with a pKa (basic group) of 4.23. Still for that read-out and setting: next, `CCC(C)(C)N(C)C(C)C`: 11.2; `CCN(CC)CCS(=O)(=O)c1ccc(OC)c(OC)c1OC`: 7.41. `CC(=O)CN=O` showed a pKa (acidic group) of 8.4. For the molecule `O=[N+]([O-])c1ccc(-c2cnc(-c3ccccc3)o2)cc1`, the pKa (basic group) was found to be 0.35. Same read-out and setting: next, `C[NH2+]CCN(C)CC[NH3+]`: 3.38. `CC(=O)N[C@H]1CONC1=O` gave a pKa (acidic group) of 5.8. As for `Nc1ccc2cc3c(ccc4ccccc43)nc2c1`, where the note is “basic group”, the pKa was found to be 7.42. Turning to `CC(C)N(c1ccccc1)C(C)C`, the pKa (basic group) amounted to 6.19. The same measure, in the same setting: next, `CC(=O)Oc1cccc2cccnc12`: 3.3. `CC(C)OO` gave a pKa (acidic group) of 12.1. Regarding `CN1CCC2Cc3ccc(O)c(O)c3C3CCCC1C23` (configuration not stated), the pKa (basic group) stood at 7.58. Still for that read-out and setting: next, `Nc1ccnc2c1ncn2CCOCP(=O)([O-])O`: 5.52; `Cn1cncn1`: 2.31. `Brc1ccccc1-c1nnn[nH]1` yielded a pKa (acidic group) of 3.83. Under “basic group”, `N[C@H]1CCCC[C@@H]1C(=O)Oc1ccc([N+](=O)[O-])cc1` displayed a pKa of 8.57. Regarding `Cc1ccnc(NS(=O)(=O)c2ccc(N)cc2)n1`, the pKa was found to be 6.59 (acidic group) and 2.08 (basic group). Under “basic group”, `COc1ccc2c3c1O[C@H]1CCC[C@H]4[C@H](NCC[C@]314)[C@@H]2O` yielded a pKa of 9.17. Turning to `O=C(c1ccccc1)c1ccc([O-])[n+](O)c1`, the pKa (acidic group) is 5.13. The same measure, in the same setting: next, `CC(=O)c1ccc([N+](=O)[O-])cc1`: 16.6. In turn, `N=C(c1ccccc1)c1cccc(Cl)c1` showed a pKa (basic group) of 5.69.

Turning to `Cc1cc2c(cc1N)Sc1cc([NH+](C)C)ccc1N2`, the pKa (basic group) was found to be 4.81. In the case of `O=C(O)c1ccc(=O)oc1`, the pKa (acidic group) turned out to be 3.26.

The molecule `CCOc1ccc(C(=O)NC(=S)N(CC)CC)cc1` had a pKa (acidic group) of 8.83. `Nc1cccc2[nH]ncc12` came in with a pKa (basic group) of 3.29. Still for that read-out and setting: next, `N[C@@H]1C[C@H]2CCCC[C@@H]2C[C@@H]1[NH3+]`: 6.36. Same read-out and setting: next, `CC(C)n1cnc2ccccc21`: 5.74. Under “acidic group”, `CN1Cc2[nH]cnc2N(C)C1=O` returned a pKa of 11.2. The molecule `C[C@H]1C[C@@H]2CCC[C@@H]2N1C` came in with a pKa (basic group) of 10.1. The molecule `Cc1cn([C@@H]2C[C@@H](O)[C@H](CO)O2)c(=O)[nH]c1=S` registered a pKa (acidic group) of 8.8. As for `COC(=O)c1ccc(N(C)C)cc1`, the pKa (basic group) was 2.61.

In turn, `CC(C)N(C(=S)S)C(C)C` displayed a pKa (acidic group) of 4.3. Regarding `CNCCCNC(=O)/C=N/[O-]`, where the note is “basic group”, the pKa stood at 10.6.

Regarding `CC(C)(O)C(C(=O)O)c1ccc(C2CCCCC2)cc1` (configuration not stated), the pKa (acidic group) came to 3.76. `NNC(=O)c1ccc([NH3+])cc1` showed a pKa (basic group) of 2.05. Under “acidic group”, `COP(=O)([O-])NS(C)(=O)=O` gave a pKa of 6.55.

In turn, `O=C1COC(=O)C1[N+](=O)[O-]` (configuration not stated) registered a pKa (acidic group) of 1.68. Regarding `c1ccc(C(CCN2CCOCC2)c2ccccc2)cc1`, the pKa (basic group) amounted to 7.25. `CCNCCC(=O)[O-]`: under “basic group”, the pKa worked out at 10.6. For the molecule `CN(C)c1cccc(O)c1`, the pKa (acidic group) came out at 9.85.

`CC/C(C)=C\C(=O)O` had a pKa (acidic group) of 5.15. Where the note is “basic group”, `Nc1cc[nH+]c([S-])n1` had a pKa of 3.32. As to `C=CC(C)(C)Nc1ccccc1`, the pKa (basic group) is 4.88.

On to `NC(=O)C1CN2CCC1CC2` (configuration not stated), for which the pKa (acidic group) was 9.74.

Turning to `Cc1cccc(NS(=O)(=O)c2ccc(N)cc2)[n+]1[O-]`, where the note is “acidic group”, the pKa was found to be 5.9.
